Experimental data from patent US20240279237A1, “FUSED BICYCLIC HETEROARYL COMPOUNDS USEFUL AS NLRP3 INHIBITORS” (Hoffmann-La Roche Inc., priority 2021, published 2024).
Counter-ions that a name gives are not always drawn.

Molecular target: T1, NLRP3 (Homo sapiens, UniProt Q96P20)
T1 construct: Seed THP-1 cells (25,000 cells/well) containing 1.0 μg/ml LPS in 40 μl of RPMI medium; host or cells: THP-1 cells
Experiment: THP-1 Cells Pyroptosis Assay
Format: cell-based
Settings: THP-1 cells with 1.0 μg/ml LPS; compound 3 hours; nigericin 5 μM 1 hr; resazurin readout
Protocol: The cells were routinely passaged and grown to confluency (˜10^6 cells/ml). On the day of the experiment, THP-1 cells were harvested and resuspended into RPMI medium (without FBS). The cells were then counted and viability (>90%) checked by Trypan blue (Sigma #T8154). […] To this diluted cell solution was added LPS (Sigma #L4524) to give a 1 μg/ml Final Assay Concentration (FAC). 40 μl of the final preparation was aliquoted into each well of a 96-well plate. The plate thus prepared was used for compound screening.
The following method step-by-step assay was followed for compound screening. • 1. […] Incubate for 3 hours at 37° C., 5% CO2 • 4. Add 5 μl nigericin (Sigma #N7143) (FAC 5 μM) to all wells • 5. Incubate for 1 hr at 37° C., 5% CO2 • 6. At the end of the incubation period, spin plates at 300×g for 3 mins and remove supernatant • 7. Then add 50 μl of resazurin (Sigma #R7017) (FAC 100 μM resazurin in RPMI medium without FBS) and incubate plates for a further 1-2 hours at 37° C. and 5% CO2 • 8.

T1 sequence (Q96P20 whole entry): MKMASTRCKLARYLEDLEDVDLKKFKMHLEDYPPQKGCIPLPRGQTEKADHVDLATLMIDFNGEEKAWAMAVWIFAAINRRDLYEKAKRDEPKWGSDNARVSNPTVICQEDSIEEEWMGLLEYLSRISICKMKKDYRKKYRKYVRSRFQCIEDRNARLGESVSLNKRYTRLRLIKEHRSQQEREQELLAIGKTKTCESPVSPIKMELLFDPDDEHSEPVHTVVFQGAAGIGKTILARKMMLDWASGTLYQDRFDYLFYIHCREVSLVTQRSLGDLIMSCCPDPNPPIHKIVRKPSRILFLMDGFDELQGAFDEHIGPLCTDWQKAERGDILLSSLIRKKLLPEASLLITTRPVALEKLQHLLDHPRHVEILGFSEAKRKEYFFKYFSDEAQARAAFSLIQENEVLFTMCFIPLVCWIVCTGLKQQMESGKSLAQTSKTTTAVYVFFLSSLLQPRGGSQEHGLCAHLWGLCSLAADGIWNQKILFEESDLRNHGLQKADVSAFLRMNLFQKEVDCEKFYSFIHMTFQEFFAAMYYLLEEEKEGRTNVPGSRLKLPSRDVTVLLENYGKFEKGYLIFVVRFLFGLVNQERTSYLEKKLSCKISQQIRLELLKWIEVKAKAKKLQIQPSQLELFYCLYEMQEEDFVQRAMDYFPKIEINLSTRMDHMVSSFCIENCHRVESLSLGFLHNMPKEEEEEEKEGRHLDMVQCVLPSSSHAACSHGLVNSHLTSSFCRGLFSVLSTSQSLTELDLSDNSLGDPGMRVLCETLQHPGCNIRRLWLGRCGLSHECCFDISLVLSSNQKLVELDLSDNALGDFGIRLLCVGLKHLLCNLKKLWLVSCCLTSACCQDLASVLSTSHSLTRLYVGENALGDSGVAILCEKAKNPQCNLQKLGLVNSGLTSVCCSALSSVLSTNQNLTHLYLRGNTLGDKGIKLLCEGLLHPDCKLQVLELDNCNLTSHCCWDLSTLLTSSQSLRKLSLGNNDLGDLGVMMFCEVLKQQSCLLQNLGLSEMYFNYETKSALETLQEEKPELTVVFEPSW

SMILES | IC50 [nM]
Cc1cc(C#N)cc(O)c1-c1ccc2oc(N3CCC4CCN(C)CC43)nc2n1 (single isomer, unassigned) [Example 27B, 4-[2-[(3aR,7aS or 3aS,7aR)-6-methyl-3,3a,4,5,7,7a-hexahydro-2H-pyrrolo[2,3-c]pyridin-1-yl]oxazolo[4,5-b]pyridin-5-yl]-3-hydroxy-5-methyl-benzonitrile] | 2.7
Cc1cc(C(F)(F)F)cc(O)c1-c1ccc2oc(N3CC[C@@H]4CCN(C)C[C@@H]43)nc2n1 (single isomer, unassigned) [Example 37A, 2-[2-[(3aS,7aR)-6-Methyl-3,3a,4,5,7,7a-hexahydro-2H-pyrrolo[2,3-c]pyridin-1-yl]oxazolo[4,5-b]pyridin-5-yl]-3-methyl-5-(trifluoromethyl)phenol or 2-[2-[(3aR,7aS)-6-methyl-3,3a,4,5,7,7a-hexahydro-2H-pyrrolo[2,3-c]pyridin-1-yl]oxazolo[4,5-b]pyridin-5-yl]-3-methyl-5-(trifluoromethyl)phenol] | 216
Cc1cc(C(F)(F)F)cc(O)c1-c1ccc2oc(N3CC[C@H]4CCN(C)C[C@H]43)nc2n1 (single isomer, unassigned) [Example 37B, 2-[2-[(3aR,7aS)-6-methyl-3,3a,4,5,7,7a-hexahydro-2H-pyrrolo[2,3-c]pyridin-1-yl]oxazolo[4,5-b]pyridin-5-yl]-3-methyl-5-(trifluoromethyl)-phenol or 2-[2-[(3aS,7aR)-6-Methyl-3,3a,4,5,7,7a-hexahydro-2H-pyrrolo[2,3-c]pyridin-1-yl]oxazolo[4,5-b]pyridin-5-yl]-3-methyl-5-(trifluoromethyl)phenol] | 1.1
CCN1CCC2CCN(c3nc4nc(-c5c(C)cc(C#N)cc5O)ccc4o3)C2C1 (single isomer, unassigned) [Example 72A, 4-[2-[(3aS,7aR)-6-Ethyl-3,3a,4,5,7,7a-hexahydro-2H-pyrrolo[2,3-c]pyridin-1-yl]oxazolo[4,5-b]pyridin-5-yl]-3-hydroxy-5-methyl-benzonitrile or 4-[2-[(3aR,7aS)-6-ethyl-3,3a,4,5,7,7a-hexahydro-2H-pyrrolo[2,3-c]pyridin-1-yl]oxazolo[4,5-b]pyridin-5-yl]-3-hydroxy-5-methyl-benzonitrile] | 1
CCN1CCC2CCN(c3nc4nc(-c5c(C)cc(C#N)cc5O)ccc4o3)C2C1 (single isomer, unassigned) [Example 72B, 4-[2-[(3aR,7aS)-6-ethyl-3,3a,4,5,7,7a-hexahydro-2H-pyrrolo[2,3-c]pyridin-1-yl]oxazolo[4,5-b]pyridin-5-yl]-3-hydroxy-5-methyl-benzonitrile or 4-[2-[(3aS,7aR)-6-Ethyl-3,3a,4,5,7,7a-hexahydro-2H-pyrrolo[2,3-c]pyridin-1-yl]oxazolo[4,5-b]pyridin-5-yl]-3-hydroxy-5-methyl-benzonitrile] | 310
Cc1cc(Cl)cc(O)c1-c1ccc2oc([C@H]3CCC(=O)NC3)nc2n1 (single isomer, unassigned) [Example 73A, (5S)-5-[5-(4-Chloro-2-hydroxy-6-methyl-phenyl)oxazolo[4,5-b]pyridin-2-yl]piperidin-2-one or (5R)-5-[5-(4-Chloro-2-hydroxy-6-methyl-phenyl)oxazolo[4,5-b]pyridin-2-yl]piperidin-2-one] | 18.7
Cc1cc(Cl)cc(O)c1-c1ccc2oc([C@@H]3CCC(=O)NC3)nc2n1 (single isomer, unassigned) [Example 73B, (5R)-5-[5-(4-Chloro-2-hydroxy-6-methyl-phenyl)oxazolo[4,5-b]pyridin-2-yl]piperidin-2-one or (5S)-5-[5-(4-chloro-2-hydroxy-6-methyl-phenyl)oxazolo[4,5-b]pyridin-2-yl]piperidin-2-one] | 78.7
Cc1cc(C#N)cc(O)c1-c1ccc2oc(N[C@H]3CCCN4CCC[C@@H]34)nc2n1 (single isomer, unassigned) [Example 139A, 4-[2-[[(8S,8aS)-1,2,3,5,6,7,8,8a-Octahydroindolizin-8-yl]amino]oxazolo[4,5-b]pyridin-5-yl]-3-hydroxy-5-methyl-benzonitrile or 4-[2-[[(8R,8aR)-1,2,3,5,6,7,8,8a-octahydroindolizin-8-yl]amino]oxazolo[4,5-b]pyridin-5-yl]-3-hydroxy-5-methyl-benzonitrile] | 3.7
Cc1cc(C#N)cc(O)c1-c1ccc2oc(NC3CCCN4CCCC34)nc2n1 (single isomer, unassigned) [Example 139B, 4-[2-[[(8R,8aR)-1,2,3,5,6,7,8,8a-Octahydroindolizin-8-yl]amino]oxazolo[4,5-b]pyridin-5-yl]-3-hydroxy-5-methyl-benzonitrile or 4-[2-[[(8S,8aS)-1,2,3,5,6,7,8,8a-octahydroindolizin-8-yl]amino]oxazolo[4,5-b]pyridin-5-yl]-3-hydroxy-5-methyl-benzonitrile] | 59.9
Cc1cc(C(F)(F)F)cc(O)c1-c1ccc2oc(N3CCOCC3)nc2n1 [Example 4, 3-Methyl-2-(2-morpholinooxazolo[4,5-b]pyridin-5-yl)-5-(trifluoromethyl)phenol] | 29.4
Cc1cc(C(F)(F)F)cc(O)c1-c1ccc2oc(N3CCNCC3)nc2n1 [Example 6, 3-Methyl-2-(2-piperazin-1-yloxazolo[4,5-b]pyridin-5-yl)-5-(trifluoromethyl)phenol formic acid salt] | 86.6
Cc1cc(C(F)(F)F)cc(O)c1-c1ccc2[nH]c(N3CCNCC3)nc2n1 [Example 8, 3-Methyl-2-(2-piperazin-1-yl-1H-imidazo[4,5-b]pyridin-5-yl)-5-(trifluoromethyl)phenol;2,2,2-trifluoroacetic acid] | 302
Cc1cc(C(F)(F)F)cc(O)c1-c1ccc2oc(N3CC(O)C3)nc2n1 [Example 12, 1-[5-[2-Hydroxy-6-methyl-4-(trifluoromethyl)phenyl]oxazolo[4,5-b]pyridin-2-yl]azetidin-3-ol] | 215
Cc1cc(C(F)(F)F)cc(O)c1-c1ccc2oc(NC3CCCC(O)C3)nc2n1 (stereo not drawn) [Example 13, 2-[2-[(3-Hydroxycyclohexyl)amino]oxazolo[4,5-b]pyridin-5-yl]-3-methyl-5-(trifluoromethyl)phenol] | 442
CCN1CCC[C@@H](Nc2nc3nc(-c4c(C)cc(C(F)(F)F)cc4O)ccc3o2)C1 [Example 14, 2-[2-[[(3R)-1-Ethyl-3-piperidyl]amino]oxazolo[4,5-b]pyridin-5-yl]-3-methyl-5-(trifluoromethyl)phenol] | 1
Cc1cc(C(F)(F)F)cc(O)c1-c1ccc2oc(N[C@@H]3CCCN(C)C3)nc2n1 [Example 15, 3-Methyl-2-[2-[[(3R)-1-methyl-3-piperidyl]amino]oxazolo[4,5-b]pyridin-5-yl]-5-(trifluoromethyl)phenol] | 0.7
CCN1CCC[C@@H](Nc2nc3nc(-c4c(C)cc(Cl)c(F)c4O)ccc3o2)C1 [Example 21, 5-Chloro-2-[2-[[(3R)-1-ethyl-3-piperidyl]amino]oxazolo[4,5-b]pyridin-5-yl]-6-fluoro-3-methyl-phenol;2,2,2-trifluoroacetic acid salt] | 0.6
CCN1CCC[C@@H](Nc2nc3nc(-c4c(O)cc(Cl)cc4C#N)ccc3o2)C1 [Example 23, 5-Chloro-2-[2-[[(3R)-1-ethyl-3-piperidyl]amino]oxazolo[4,5-b]pyridin-5-yl]-3-hydroxy-benzonitrile] | 4.2
CCN1CCCC(Nc2nc3nc(-c4c(O)cc(Cl)cc4COC)ccc3o2)C1 [Example 24, 5-Chloro-2-[2-[[(3R)-1-ethyl-3-piperidyl]amino]oxazolo[4,5-b]pyridin-5-yl]-3-(methoxymethyl)phenol;2,2,2-trifluoroacetic acid salt] | 1.7
CCN1CCC[C@@H](Nc2nc3nc(-c4c(C)cc(C#N)cc4O)ccc3o2)C1 [Example 25, 4-[2-[[(3R)-1-Ethyl-3-piperidyl]amino]oxazolo[4,5-b]pyridin-5-yl]-3-hydroxy-5-methyl-benzonitrile] | 1.6
Cc1cc(C#N)cc(O)c1-c1ccc2oc(N[C@@H]3CCCN(C)C3)nc2n1 [Example 26, 3-Hydroxy-5-methyl-4-[2-[[(3R)-1-methyl-3-piperidyl]amino]oxazolo[4,5-b]pyridin-5-yl]benzonitrile] | 2.8
CCN1C[C@@H](O)C[C@@H](Nc2nc3nc(-c4c(C)cc(C#N)cc4O)ccc3o2)C1 [Example 28, 4-[2-[[(3R,5S)-1-Ethyl-5-hydroxy-3-piperidyl]amino]oxazolo[4,5-b]pyridin-5-yl]-3-hydroxy-5-methyl-benzonitrile;formic acid salt] | 4.6
CN1CCCC(Nc2nc3nc(-c4c(O)cc(C(F)(F)F)cc4C(F)F)ccc3o2)C1 [Example 30, 3-(Difluoromethyl)-2-[2-[[(3R)-1-methyl-3-piperidyl]amino]oxazolo[4,5-b]pyridin-5-yl]-5-(trifluoromethyl)phenol;2,2,2-trifluoroacetic acid salt] | 4.5
CCN1CCC[C@@H](Nc2nc3nc(-c4c(O)cc(C(F)(F)F)cc4OC)ccc3o2)C1 [Example 31, 2-[2-[[(3R)-1-Ethyl-3-piperidyl]amino]oxazolo[4,5-b]pyridin-5-yl]-3-methoxy-5-(trifluoromethyl)phenol;2,2,2-trifluoroacetic acid salt] | 4
